“And” between values parts separate entries of the source, which are not always exact repeats. Equal values may be shown once. ± gives the expanded uncertainty stated by the source.
Settings: Liquid, Transpiration method

CCCCCCC1CCC(=O)O1 (stereo unspecified) [γ-decalactone]
Settings | vapor or sublimation pressure
298.4 K | 0.00035 ± 2e-05 kPa
303.3 K | 0.00056 ± 3e-05 kPa
308.2 K | 0.00088 ± 5e-05 kPa
313.1 K | 0.00146 ± 7e-05 kPa
313.4 K | 0.00144 ± 7e-05 kPa
318.2 K | 0.00214 ± 0.00011 kPa and 0.00233 ± 0.00012 kPa
322.9 K | 0.00339 ± 0.00017 kPa
323.2 K | 0.00345 ± 0.00018 kPa
328.1 K | 0.00532 ± 0.00028 kPa
328.2 K | 0.00523 ± 0.00028 kPa
333 K | 0.00765 ± 0.0004 kPa
333.2 K | 0.00791 ± 0.00041 kPa
338.1 K | 0.0114 ± 0.00059 kPa
338.7 K | 0.01181 ± 0.00061 kPa
343.2 K | 0.01646 ± 0.00087 kPa
343.9 K | 0.01747 ± 0.00092 kPa
348.2 K | 0.02361 ± 0.0012 kPa
349.4 K | 0.02507 ± 0.0013 kPa
353.3 K | 0.03379 ± 0.0017 kPa
354.8 K | 0.03595 ± 0.0019 kPa
360.3 K | 0.05404 ± 0.0028 kPa
365 K | 0.07279 ± 0.0037 kPa

CCCCCC1CCC(=O)O1 (stereo unspecified) [2(3H)-furanone, dihydro-5-pentyl-]
Settings | vapor or sublimation pressure [kPa]
296.2 K | 0.00085 ± 5e-05
300 K | 0.00123 ± 7e-05
306 K | 0.00211 ± 0.00011
313.1 K | 0.00391 ± 0.0002
318.1 K | 0.00574 ± 0.0003
323.2 K | 0.0088 ± 0.00046
328.2 K | 0.01277 ± 0.00067
333.1 K | 0.01835 ± 0.00095
338 K | 0.02514 ± 0.0013
342.8 K | 0.03648 ± 0.0019
348.4 K | 0.05463 ± 0.0028
353.2 K | 0.07252 ± 0.0038
358.1 K | 0.1037 ± 0.0053
363.4 K | 0.1375 ± 0.007

CCC1CCC(=O)O1 (stereo unspecified) [2(3H)-furanone, 5-ethyldihydro-]
Settings | vapor or sublimation pressure [kPa]
283.3 K | 0.00612 ± 0.00032
284.1 K | 0.00643 ± 0.00034
285.3 K | 0.00733 ± 0.00041
288.2 K | 0.00998 ± 0.00053
290.2 K | 0.01151 ± 0.00061
293.2 K | 0.01468 ± 0.00076
295.3 K | 0.0168 ± 0.00088
298.2 K | 0.02155 ± 0.0011
300.2 K | 0.0271 ± 0.0014
303.2 K | 0.0324 ± 0.0017
305.2 K | 0.0372 ± 0.0019
308.1 K | 0.04647 ± 0.0024
310.1 K | 0.05153 ± 0.0027
313.2 K | 0.06502 ± 0.0033
315.1 K | 0.06992 ± 0.0036
318.2 K | 0.08725 ± 0.0046
323.2 K | 0.1267 ± 0.0066
328.2 K | 0.1719 ± 0.0088
333.2 K | 0.2306 ± 0.012
338.2 K | 0.3093 ± 0.016
343.1 K | 0.4065 ± 0.021
348.2 K | 0.5374 ± 0.027
350.9 K | 0.6238 ± 0.032
353.3 K | 0.6982 ± 0.035

CCCC1CCC(=O)O1 (stereo unspecified) [2(3H)-furanone, dihydro-5-propyl-]
Settings | vapor or sublimation pressure [kPa]
298.1 K | 0.00729 ± 0.00039
302.8 K | 0.01081 ± 0.00057
308 K | 0.01613 ± 0.00085
313.1 K | 0.02435 ± 0.0013
318 K | 0.03459 ± 0.0018
323.1 K | 0.05178 ± 0.0027
328.1 K | 0.07127 ± 0.0037
333 K | 0.09289 ± 0.0048
338.2 K | 0.1344 ± 0.007
343.2 K | 0.1842 ± 0.0095
348.2 K | 0.2432 ± 0.012
353.2 K | 0.3239 ± 0.017
358.4 K | 0.4408 ± 0.023
363.2 K | 0.572 ± 0.029

CC1CCC(=O)O1 (stereo unspecified) [γ-valerolactone]
Settings | vapor or sublimation pressure [kPa]
275.8 K | 0.00748 ± 0.00041
282 K | 0.0128 ± 0.00068
288 K | 0.02076 ± 0.0011
292.8 K | 0.02954 ± 0.0017
293.4 K | 0.03202 ± 0.0018
298.6 K | 0.04438 ± 0.0023
300.7 K | 0.05548 ± 0.0029
302.7 K | 0.06032 ± 0.0032
306.6 K | 0.08358 ± 0.0043
309 K | 0.09563 ± 0.005
312.9 K | 0.1265 ± 0.0065
317.3 K | 0.1599 ± 0.0082
322.3 K | 0.2195 ± 0.011
326.9 K | 0.2912 ± 0.015
332.4 K | 0.3929 ± 0.02
333.9 K | 0.4475 ± 0.023
337.3 K | 0.5167 ± 0.026
338.8 K | 0.58 ± 0.03
342.6 K | 0.7011 ± 0.036
343.8 K | 0.759 ± 0.039
347.5 K | 0.9099 ± 0.046
349.7 K | 1.033 ± 0.053
